The results in this text go back to PubChem BioAssay (NCI).

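Dose response: 5 concentrations. Exposure: 48 h. Format: 96-well plates. Endpoint: linear interpolation; highest concentration if not reached. GI50 is the concentration that inhibits growth by half. The concentration for full growth arrest is given as TGI.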

Common to all, as to test: NCI tumour cell line growth inhibition, 48 h
Assay [1] has as its system SK-OV-3 ovarian.
In assay [2] the test system is MDA-MB-231 breast.
The test system of assay [3] is K-562 leukemia.
Assay [4] relates to OVCAR-3 ovarian.
For assay [5], the system named is HCT-15 colon.
In assay [6] the test system is UO-31 renal.
Assay [7] relates to SK-MEL-5 melanoma.
The subject of assay [8] is MDA-MB-435.
For assay [9], the system named is TK-10 renal.

As for `COC(=O)C1CC2(c3ccc(C)cc3)C(c3ccc(C)cc3)=C(c3ccc(C)cc3)C1(c1ccc(C)cc1)S2=O` (centres undefined), the GI50 in [1], in assay [2], in assay [3], in [4], in assay [5] and in assay [6] was greater than 100 µM throughout. Also, the GI50 in assay [7], in [8] and in [9] was greater than 100 µM throughout. Besides, the TGI in assay [1], in [2], in assay [3], in assay [4], in [5] and in assay [6] was greater than 100 µM in each case. Also, the TGI in assay [7], in assay [8] and in assay [9] was greater than 100 µM throughout.
Turning to `COc1cc(C)c(C(=O)/C=C/c2cc(OC)c(O)c(OC)c2)cc1O`, the TGI in [1] was 85.1 µM; in assay [3], greater than 100 µM; in assay [4], 91.1 µM; in assay [6], 57.5 µM; in assay [7] it was 33.6 µM; in assay [9] it was greater than 100 µM.
On to `Cc1cc(N(CCCNc2ccnc3cc(Cl)ccc23)Cc2cccs2)nc(Cl)n1`, for which the GI50 in assay [1] is 7.05 µM; in [2], 3.36 µM; in assay [3], 0.743 µM; in [4], 6.43 µM; in [5], 2.45 µM; in assay [6], 0.986 µM. In addition, the GI50 in assay [7] is 1.45 µM; in assay [8], 4 µM; in assay [9], 5.96 µM. For the same compound, the TGI came to 22.1 µM in assay [1]; 17.3 µM in assay [2]; 12.2 µM in assay [3]; 21.4 µM in [4]; 12.8 µM in [5]; 7.73 µM in assay [6]. The TGI was 3.15 µM in assay [7], 15.8 µM in assay [8] and 20.9 µM in assay [9].
Turning to `COc1cc(C2c3cc4c(cc3C3OC(=O)C2C3CO)OCO4)cc(OC)c1OC` (centres undefined), the GI50 is 0.0217 µM in assay [1]; 0.03 µM in [2]; 0.0205 µM in assay [3]; 0.0272 µM in [5]; 0.0644 µM in [6]; 0.0176 µM in assay [7]. Moreover, the GI50 in assay [8] was 0.01 µM; in assay [9], 0.0535 µM. The TGI is 0.0722 µM in assay [1]; 0.0901 µM in assay [2]; greater than 100 µM in assay [3]; greater than 100 µM in assay [5]; greater than 100 µM in assay [6]; 0.047 µM in [7]. In addition, the values for the TGI in assay [8] and in assay [9] were 0.0374 µM and greater than 100 µM, respectively.
With `NC1=CC(=O)C(=O)c2cccnc21`, the GI50 in assay [1] is 18.8 µM; in assay [2], 1.93 µM; in [3] it was 3.03 µM; in assay [4], 12.9 µM; in [5], 5.37 µM; in assay [6] it was 2.48 µM. The GI50 was 1.51 µM in assay [7], 1.74 µM in assay [8] and 29.3 µM in assay [9]. The TGI in assay [1] is 41.2 µM; in [2], 18.8 µM; in [3], 10.6 µM; in [4], 29.4 µM; in assay [5], 23.4 µM; in [6], 17.7 µM. Moreover, the TGI in assay [7] worked out at 2.84 µM; in [8] it was 3.17 µM; in assay [9], 68.2 µM.
Turning to `C(=C1\CCC/C(=C/c2ccccc2)C1=NNc1ccccc1)/c1ccccc1`, the TGI in assay [1], in [3], in assay [4], in assay [5], in assay [6] and in assay [7] was greater than 100 µM each time. The same compound displayed a TGI in assay [9] greater than 100 µM.
Turning to `CC(C)[C@@H](C(=O)O[C@@H]1/C=C/C(=O)O[C@@H](C)CCC/C=C/[C@@H]2C[C@H](O)C[C@H]21)[N+](C)(C)C`, the GI50 in assay [1], in assay [2], in assay [3], in [4], in [5] and in [6] was greater than 100 µM throughout. Moreover, the GI50 in assay [7], in assay [8] and in assay [9] was greater than 100 µM each time. The TGI in assay [1], in assay [2], in assay [3], in assay [4], in assay [5] and in [6] was greater than 100 µM throughout. Further, the TGI in assay [7], in assay [8] and in [9] was greater than 100 µM in each case.
Take `O=C1C[C@@H](c2ccccc2)NCCCCN(O)CCCN1`: the TGI in [1], in [2], in assay [4], in assay [5], in assay [6] and in assay [7] was greater than 100 µM throughout. Besides, the TGI in assay [8] and in assay [9] was greater than 100 µM throughout.
Turning to `CC1=C(C(=O)Nc2ccccc2C)C(c2ccc(N(C)C)cc2)C(C(=O)Nc2ccccc2C)=C(C)N1`, the TGI in [1], in assay [3], in assay [4], in assay [5], in assay [6] and in assay [7] was greater than 100 µM each time. The compound further showed a TGI in assay [9] greater than 100 µM.
For `COc1cc2c(cc1OCCCCCCNC(=O)c1cc3ccccc3[nH]1)N=CC1CCCN1C2=O` (centres undefined), the GI50 in assay [1] is 64.8 µM; in [2], 20.9 µM; in [3], 30.5 µM; in assay [4] it was 6.17 µM; in assay [5] it was 32.1 µM; in assay [6] it was 33.9 µM. Moreover, the GI50 is 14.2 µM in assay [7], 39.3 µM in assay [8] and 20.7 µM in assay [9]. Besides, the TGI in [1] was greater than 100 µM; in assay [2] it was 79.1 µM; in assay [3] it was greater than 100 µM; in assay [4], greater than 100 µM; in assay [5], greater than 100 µM; in assay [6], greater than 100 µM. Further, the TGI in assay [7] is 32 µM; in assay [8] it was greater than 100 µM; in assay [9] it was 93.6 µM.
